# Results from patent EP1542672B1, “R-BAMBUTEROL, ITS PREPARATION AND THERAPEUTIC USES” (priority 2002, dated 2004).
# Tests used:
# Rats (Sprague Dawley) = assay: Cardiovascular effects in anesthetized rats (HR, MBP, Max dp/dt); format: in vivo; settings: 30 mg/kg intravenously
# From the text: Test method: Rats (Sprague Dawley, 250-300g) were randomized into two groups (n=6, equal sexes). After anesthesia, plastic tubing was introduced into a carotid artery of each animal and connected to pressure transducers to record mean artery pressure (MBP) and heart rate (HR). Another tube was introduced into the left ventricular chamber via the another carotid artery and connected to a pressure transducer. Left ventricular systolic pressure (LVSP) and the first order of differential of LVSP (dp/dt) as an index for inotropic effects were recorded. R-Bambuterol and racemic bambuterol hydrochloride were dissolved in saline and administrated intravenously at 30 mg/kg to each animal. The HR, MBP and Max dp/dt were measured before treatment (control) and after the treatments when the maximum response occurred, and 20 min after treatment as indication of recovery.
# hyperlipidemia mice = assay: Lipid lowering effects in Tyloxapol-induced hyperlipidemia mice; format: in vivo, Kunming strain; settings: plasma; 10 mg/kg oral once a day for four days; Tyloxapol 400 mg/kg i.p.; blood 24 hours after Tyloxapol
# Experimental: Test method: Male and […] mice, Kunming strain, 35 each, weight 18-22 grams, were used. Food and water were available ad libitum. The animals were randomized into 7 groups (n=10). Groups of animals were administered orally, via a stomach tube, vehicle (distilled water, two groups), R-bambuterol hydrochloride (10 mg/kg and 5 mg/kg), racemic bambuterol hydrochloride (10 mg/kg and 5 mg/kg) and simvastatin (10 mg/kg) once a day for four days. With the exception of one vehicle- treated group (as control), Tyloxapol (400 mg/kg, Sigma Chemical Co.) was injected into the peritoneal cavity of the mice of all groups immediately after the last treatment on the fourth day in order to induce hyperlipidemia. All the animals were fasted overnight prior to the injection of Tyloxapol. Blood samples were collected by cardiac puncture 24 hours after the injection of Tyloxapol. The blood samples were processed to plasma, and concentration of triglycerides (TG), cholesterol (CHO), high density lipoprotein (HDL), low density lipoprotein (LDL) and very low density lipoprotein (VLDL) were measured with an auto-blood analyzer (Olympic, Japan).
# [1] = bronchospasmolytic activity upon oral administration; cited from earlier work
# [2] = 20 min after treatment (recovery)
# [3] = change from pre-treatment control at maximum response
smiles,measurement,setting,value
CN(C)C(=O)Oc1cc(OC(=O)N(C)C)cc(C(O)CNC(C)(C)C)c1 (racemic) [bambuterol],"HR, 20min after Δ",Rats (Sprague Dawley); [2],40±9 Beat/min
same,"MBP, 20min after Δ",Rats (Sprague Dawley); [2],1.1±0.4 Kpa
same,"MBP, 20min after Δ, % of control",Rats (Sprague Dawley); [2],8.3%
same,"Maxdp/dt, 20min after Δ",Rats (Sprague Dawley); [2],13±3.8 Kpa/sec
same,"Maxdp/dt, 20min after Δ, % of control",Rats (Sprague Dawley); [2],4.8%
same,"HR, 20min after Δ, % of Control","Rats (Sprague Dawley); 20 min after treatment (recovery), listed as Rac-Bambuterol",9.5%
same,"HR, 20min after Δ, % of Control","Rats (Sprague Dawley); 20 min after treatment (recovery), listed as racemic bambuterol hydrochloride",9.5%
same,"HR, Treatment Δ, % of Control",Rats (Sprague Dawley); at maximum response,20.6%
same,"MBP, Treatment Δ, % of control",Rats (Sprague Dawley); at maximum response,31.6%
same,"Maxdp/dt, Treatment Δ, % of control","Rats (Sprague Dawley); at maximum response, listed as Rac-Bambuterol",24.4%
same,"Maxdp/dt, Treatment Δ, % of control","Rats (Sprague Dawley); at maximum response, listed as racemic bambuterol",24.4%
same,"HR, Treatment Δ",Rats (Sprague Dawley); [3],85.8±5 Beat/min
same,"MBP, Treatment Δ",Rats (Sprague Dawley); [3],4.2±0.5 Kpa
same,"Maxdp/dt, Treatment Δ",Rats (Sprague Dawley); [3],65.4±9 Kpa/sec
same,CHO lipid levels,hyperlipidemia mice,125.2 ± 19.8 mg/dL
same,HDL lipid levels,hyperlipidemia mice,50 ± 17 mg/dL
same,LDL lipid levels,hyperlipidemia mice,30 ± 6 mg/dL
same,TG lipid levels,hyperlipidemia mice,148 ± 45 mg/dL
same,VLDL lipid levels,hyperlipidemia mice,44.2 ± 14.4 mg/dL
same,duration of activity,[1],more than 12 hours
